Measured values: US5149365A, “Diorganotin compounds, and agents which have a bactericidal and fungicidal action and contain these compounds” (Schering Aktiengesellschaft, priority 1988, dated 1992)
Where a name gives a salt, the structure may show the parent alone.

Assays:
Cladosporum herbarum = assay: Filter disk test, Cladosporum herbarum; type: cell-based; conditions: 3 weeks, +30° C.
Protocol: (§1) The inhibition action against fungi, of the products according to the invention, was tested using the "filter disk test" (cf. Table 2). For this purpose, paper filter disks (.phi. 5.5 cm) were soaked in ethanolic solutions containing various amounts of active substance. After the filters had dried under room conditions, they were placed on Petri dishes containing plate-count agar which had been inoculated with a spore suspension. The nutrient medium used was biomalt agar 8° Bg, and the dishes were incubated for 3 weeks at +30° C. Thereafter, the sizes of the inhibition zones (distance of the fungal growth from the edge of the filter, in mm) around the samples were determined.

Paecilomyces varioti = assay: Filter disk test, Paecilomyces varioti; type: cell-based; conditions: 3 weeks, +30° C.
Protocol: as §1

Poria monticola = assay: Filter disk test, Poria monticola; type: cell-based; conditions: 3 weeks, +30° C.
Protocol: as §1

Lentinus lepideus = assay: Filter disk test, Lentinus lepideus; type: cell-based; conditions: 3 weeks, +30° C.
Protocol: as §1

Staphilococcus aureaus = assay: Agar diffusion test, Staphilococcus aureaus; type: cell-based; conditions: 0: no inhibition action
Protocol: (§2) DST agar was inoculated with 1 drop of a Muller-Hinton broth of the test organisms, diluted 1 : 10. After a prediffusion period of 2 hours at 22° C., the paper filters which had been soaked with solutions of active substance of various concentrations were placed on the agar. The inhibition zones (distance of the cloudy area from the edge of the paper filter in mm) were determined after an incubation time of 24 hours.

Proteus vulgaris = assay: Agar diffusion test, Proteus vulgaris; type: cell-based; conditions: 0: no inhibition action
Protocol: as §2

Escherichia coli = assay: Agar diffusion test, Escherichia coli; type: cell-based; conditions: 0: no inhibition action
Protocol: as §2

Coniophora puteana = assay: Wood block test against Coniophora puteana after leaching treatment (DIN 52 176, DIN EN 84); conditions: lower: highest amount with attack (weight loss>3%); higher: lowest amount without attack; 16 weeks, 22° C.
Source text: To compare the fungicidal action against Basidiomycetes, small blocks made of pine sapwood (5 cm×2.5 cm×1.5 cm, direction of fiber: 5 cm) were soaked with solutions of graduated concentrations of the active substance DBT-HDO (cf. Example 1) in acetone, based on DIN 52 176.
For comparison reasons, the starting materials di-n-butyltin dichloride and the K salt of N-cyclohexyl-N'-hydroxydiazenium oxide were included in the investigations.
The soaked blocks were kept for 4 weeks in an environmentally-controlled chamber at an air temperature of 20° C. and a relative atmospheric humidity of 65%. They were then subjected to a leaching procedure in accordance with DIN EN 84. […] The effect of the fungi on the individual blocks was determined by calculating the weight losses (based on the dry weights). The limits which were determined in this way and which are expressed by two figures, the lower of which being the highest amount of protective agent (in kg/m^3 of wood) at which an attack still took place (weight loss>3%), and the higher denoting the lowest amount from which an attack no longer took place, are listed in Table 3.

Bacillus subtilis = assay: Agar diffusion test, Bacillus subtilis; type: cell-based; conditions: 0: no inhibition action
Protocol: as §2

[1] = Weight loss (release) on storage, 6 days at 65° C.; type: physicochemical; conditions: 6 days 65° C.
Protocol: As shown by the comparison above, the amount released into the environment during a storage period of 6 days at 65° C. of, for example, TBT-HDO, is nearly six times higher than in the case of DBT-HDO according to the invention.

Orfes = assay: EC50 in Orfes (DIN 38412, Part 15); type: in vivo
Source text: *Determination in accordance with DIN 38412, Part 15

Daphnia = assay: EC50 in Daphnia (DIN 38412, Part 12); type: in vivo
Source text: **Determination in accordance with DIN 38412, Part 12.

[2] = 0.1% active substance in soaking solution
[3] = 0.3% active substance in soaking solution
[4] = 0.5% active substance in soaking solution

## CCCCCCC[CH2][Sn]([CH2]CCCCCCC)([O]N(N=O)C1CCCCC1)[O]N(N=O)C1CCCCC1 [DOT-HDO, bis(N-cyclohexyldiazeniumdioxy)di-n-octyltin]
Cladosporum herbarum; 0.5% content of the solution
  inhibition zone (IZ): 10-12 mm
Cladosporum herbarum; 1% content of the solution
  inhibition zone (IZ): 12-15 mm
Cladosporum herbarum; 2% content of the solution
  inhibition zone (IZ): > 15 mm
Paecilomyces varioti; 0.5% content of the solution
  inhibition zone (IZ): 5-6 mm
Paecilomyces varioti; 1% content of the solution
  inhibition zone (IZ): 8-10 mm
Paecilomyces varioti; 2% content of the solution
  inhibition zone (IZ): 10-12 mm
Poria monticola; 0.5% content of the solution
  inhibition zone (IZ): 5-6 mm
Poria monticola; 1% content of the solution
  inhibition zone (IZ): 8-10 mm
Poria monticola; 2% content of the solution
  inhibition zone (IZ): 8-10 mm
Lentinus lepideus; 0.5% content of the solution
  inhibition zone (IZ): > 15 mm
Lentinus lepideus; 1% content of the solution
  inhibition zone (IZ): > 15 mm
Lentinus lepideus; 2% content of the solution
  inhibition zone (IZ): > 15 mm

## CCCC[CH2][Sn]([CH2]CCCC)([O]N(N=O)C1CCCCC1)[O]N(N=O)C1CCCCC1 [DPT-HDO, bis(N-cyclohexyldiazeniumdioxy)di-n-pentyltin]
Cladosporum herbarum; 0.5% content of the solution
  inhibition zone (IZ): 2-3 mm
Cladosporum herbarum; 1% content of the solution
  inhibition zone (IZ): 5-7 mm
Cladosporum herbarum; 2% content of the solution
  inhibition zone (IZ): 6-8 mm
Paecilomyces varioti; 0.5% content of the solution
  inhibition zone (IZ): 6-8 mm
Paecilomyces varioti; 1% content of the solution
  inhibition zone (IZ): 8-10 mm
Paecilomyces varioti; 2% content of the solution
  inhibition zone (IZ): 10-12 mm
Poria monticola; 0.5% content of the solution
  inhibition zone (IZ): 6-8 mm
Poria monticola; 1% content of the solution
  inhibition zone (IZ): 8-10 mm
Poria monticola; 2% content of the solution
  inhibition zone (IZ): 10-12 mm
Lentinus lepideus; 0.5% content of the solution
  inhibition zone (IZ): > 15 mm
Lentinus lepideus; 1% content of the solution
  inhibition zone (IZ): > 15 mm
Lentinus lepideus; 2% content of the solution
  inhibition zone (IZ): > 15 mm

## [O-][N+](=NO)C1CCCCC1 [K-HDO, potassium salt of N-cyclohexyl-N'-hydroxydiazenium oxide]
Staphilococcus aureaus; 24 h, 0.1% active substance in soaking solution
  zone of inhibition at 0.1 % strength: 8 mm
Staphilococcus aureaus; 24 h, 0.3% active substance in soaking solution
  zone of inhibition at 0.3 % strength: 14 mm
Staphilococcus aureaus; 24 h, 0.5% active substance in soaking solution
  zone of inhibition at 0.5 % strength: 19 mm
Cladosporum herbarum; 504 h, 0.5% content of the solution, read-out: inhibition zone (IZ)
  zone of inhibition at 0.5 %: 4 to 6 mm
Cladosporum herbarum; 504 h, 1% content of the solution, read-out: inhibition zone (IZ)
  zone of inhibition at 1 %: 8 to 10 mm
Cladosporum herbarum; 504 h, 2% content of the solution, read-out: inhibition zone (IZ)
  zone of inhibition at 2 %: 10 to 12 mm
Proteus vulgaris; Proteus vulgaris, 24 h, 0.1% active substance in soaking solution
  zone of inhibition at 0.1 % strength: 0 mm
Proteus vulgaris; Proteus vulgaris, 24 h, 0.3% active substance in soaking solution
  zone of inhibition at 0.3 % strength: 0 mm
Proteus vulgaris; Proteus vulgaris, 24 h, 0.5% active substance in soaking solution
  zone of inhibition at 0.5 % strength: 0 mm
Paecilomyces varioti; Paecilomyces, 504 h, 0.5% content of the solution, read-out: inhibition zone (IZ)
  zone of inhibition at 0.5 %: 5 to 7 mm
Paecilomyces varioti; Paecilomyces, 504 h, 1% content of the solution, read-out: inhibition zone (IZ)
  zone of inhibition at 1 %: 6 to 8 mm
Paecilomyces varioti; Paecilomyces, 504 h, 2% content of the solution, read-out: inhibition zone (IZ)
  zone of inhibition at 2 %: 8 to 10 mm
Poria monticola; Poria monticola, 504 h, 0.5% content of the solution, read-out: inhibition zone (IZ)
  zone of inhibition at 0.5 %: 2 to 3 mm
Poria monticola; Poria monticola, 504 h, 1% content of the solution, read-out: inhibition zone (IZ)
  zone of inhibition at 1 %: 6 to 8 mm
Poria monticola; Poria monticola, 504 h, 2% content of the solution, read-out: inhibition zone (IZ)
  zone of inhibition at 2 %: 10 to 12 mm
Lentinus lepideus; Neolentinus lepideus, 504 h, 0.5% content of the solution, read-out: inhibition zone (IZ)
  zone of inhibition at 0.5 %: 4 to 6 mm
Lentinus lepideus; Neolentinus lepideus, 504 h, 1% content of the solution, read-out: inhibition zone (IZ)
  zone of inhibition at 1 %: 10 to 12 mm
Lentinus lepideus; Neolentinus lepideus, 504 h, 2% content of the solution, read-out: inhibition zone (IZ)
  zone of inhibition at 2 %: > 15 mm
Escherichia coli; Escherichia coli, 24 h, 0.1% active substance in soaking solution
  zone of inhibition at 0.1 % strength: 0 mm
Escherichia coli; Escherichia coli, 24 h, 0.3% active substance in soaking solution
  zone of inhibition at 0.3 % strength: 0 mm
Escherichia coli; Escherichia coli, 24 h, 0.5% active substance in soaking solution
  zone of inhibition at 0.5 % strength: 0 mm
Coniophora puteana
  Limits against Coniophora puteana after leaching treatment: 1.8-3.4 kg of product per m^3 of wood
Bacillus subtilis; Bacillus subtilis, 24 h, 0.1% active substance in soaking solution
  zone of inhibition at 0.1 % strength: 4 mm
Bacillus subtilis; Bacillus subtilis, 24 h, 0.3% active substance in soaking solution
  zone of inhibition at 0.3 % strength: 4 mm
Bacillus subtilis; Bacillus subtilis, 24 h, 0.5% active substance in soaking solution
  zone of inhibition at 0.5 % strength: 9 mm

## CCC[CH2][Sn]([CH2]CCC)([O]N(N=O)C1CCCCC1)[O]N(N=O)C1CCCCC1 [DBT-HDO, bis(N-cyclohexyldiazeniumdioxy)di-n-butyltin]
[1]
  Weight loss: 2.3%
Staphilococcus aureaus; [2]
  inhibition zone: 8 mm
Staphilococcus aureaus; [3]
  inhibition zone: 10 mm
Staphilococcus aureaus; [4]
  inhibition zone: 10 mm
Orfes
  EC50 in Orfes: 0.18 mg/l of water
Cladosporum herbarum; 0.5% content of the solution
  inhibition zone (IZ): 3-5 mm
Cladosporum herbarum; 1% content of the solution
  inhibition zone (IZ): 5-6 mm
Cladosporum herbarum; 2% content of the solution
  inhibition zone (IZ): 8-10 mm
Proteus vulgaris; [2]
  inhibition zone: 12 mm
Proteus vulgaris; [3]
  inhibition zone: 13 mm
Proteus vulgaris; [4]
  inhibition zone: 12 mm
Paecilomyces varioti; 0.5% content of the solution
  inhibition zone (IZ): 6-8 mm
Paecilomyces varioti; 1% content of the solution
  inhibition zone (IZ): 8-10 mm
Paecilomyces varioti; 2% content of the solution
  inhibition zone (IZ): 10-12 mm
Poria monticola; 0.5% content of the solution
  inhibition zone (IZ): 6-8 mm
Poria monticola; 1% content of the solution
  inhibition zone (IZ): 12-12 mm
Poria monticola; 2% content of the solution
  inhibition zone (IZ): 12-15 mm
Lentinus lepideus; 0.5% content of the solution
  inhibition zone (IZ): > 15 mm
Lentinus lepideus; 1% content of the solution
  inhibition zone (IZ): > 15 mm
Lentinus lepideus; 2% content of the solution
  inhibition zone (IZ): > 15 mm
Daphnia
  EC50 in Daphnia: 4.9 mg/l of water
Escherichia coli; [2]
  inhibition zone: 0 mm
Escherichia coli; [3]
  inhibition zone: 2 mm
Escherichia coli; [4]
  inhibition zone: 3 mm
Coniophora puteana
  Limits against Coniophora puteana after leaching treatment: 0.51-0.88 kg of product per m^3 of wood
Bacillus subtilis; [2]
  inhibition zone: 6 mm
Bacillus subtilis; [3]
  inhibition zone: 11 mm
Bacillus subtilis; [4]
  inhibition zone: 15 mm

## CCC[CH2][Sn]([Cl])([Cl])[CH2]CCC [Di-n-butyltin dichloride]
Lentinus lepideus; 1% content of the solution
  Growth: + +
